The source of these data is article PMC6150237, “Study of Absorption Characteristics of the Total Saponins from Radix Ilicis Pubescentis in an In Situ Single-Pass Intestinal Perfusion (SPIP) Rat Model by Using Ultra Performance Liquid Chromatography (UPLC)” (Molecules : A Journal of Synthetic Chemistry and Natural …, 2017).

SMILES strings stand for the structures. Where only a bound is given, the exact number is not on record here.

The conditions of data set [1]: cited from earlier work.
A short description of data set [2]: In situ single-pass intestinal perfusion (SPIP), saponins administrated in MDQ-TS form. It is filed as in vivo, rat. The conditions noted are these: male, Sprague-Dawley, rat, other: in situ single-pass intestinal perfusion. In short, it runs like this: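 Fasted, urethane-anaesthetised male Sprague-Dawley rats had ~10 cm duodenum, jejunum and ileum segments perfused at 37 °C, 0.2 mL/min, with MDQ-TS at 1.25, 2.5 or 5.0 mg·mL^−1 in K-R buffer (0.5% DMSO). After 20 min steady state, effluent was collected every 10 min to 60 min and analysed by UPLC. Water flux was corrected gravimetrically, and Ka and Papp were calculated.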

The mark [3] stands for this setting: MDQ-TS form 1.25 mg·mL^−1, duodenum, n = 5.
The mark [4] stands for this setting: MDQ-TS form 1.25 mg·mL^−1, ileum, n = 5.
[5] abbreviates: MDQ-TS form 1.25 mg·mL^−1, jejunum, n = 5.
The mark [6] stands for this setting: MDQ-TS form 2.5 mg·mL^−1, duodenum, n = 5.
The mark [7] stands for this setting: MDQ-TS form 2.5 mg·mL^−1, ileum, n = 5.
The mark [8] stands for this setting: MDQ-TS form 2.5 mg·mL^−1, jejunum, n = 5.
Where [9] appears, read: MDQ-TS form 5.0 mg·mL^−1, duodenum, n = 5.
The mark [10] stands for this setting: MDQ-TS form 5.0 mg·mL^−1, ileum, n = 5.
The mark [11] stands for this setting: MDQ-TS form 5.0 mg·mL^−1, jejunum, n = 5.
The mark [12] stands for this setting: administrated in MDQ-TS form, summary bound (except DC2 in 1.25 mg·mL^−1 MDQ-TS group).

By Papp is commonly meant the rate of passage across a membrane or cell layer, normalised by area and donor concentration. For `C[C@@H]1CC[C@]2(C(=O)O)CC[C@]3(C)C(=CC[C@@H]4[C@@]5(C)CC[C@H](O)[C@@](C)(C(=O)O)[C@@H]5CC[C@]43C)[C@@H]2[C@]1(C)O` [C1, ilexgenin A], the absolute oral bioavailability entry in data set [1] (calculated based on literature data) is “low value”. Moreover, the maximum plasma concentration entry in data set [1] (oral administration of C1, 100 mg/kg) is “approximately 350 ng·mL^−1”. Also, the Papp in data set [2] (setting [3]) was 36.7 ×10⁻⁶ cm/s; in data set [2] (setting [4]), 25 ×10⁻⁶ cm/s; in data set [2] (setting [5]), 28.3 ×10⁻⁶ cm/s; in data set [2] (setting [6]), 50 ×10⁻⁶ cm/s; in data set [2] (setting [7]), 68.3 ×10⁻⁶ cm/s; in data set [2] (setting [8]) it was 55 ×10⁻⁶ cm/s. Moreover, the Papp in data set [2] (setting [9]) is 56.7 ×10⁻⁶ cm/s; in data set [2] (setting [10]) it was 41.7 ×10⁻⁶ cm/s; in data set [2] (setting [11]), 61.7 ×10⁻⁶ cm/s; in data set [2] (setting [12]), greater than 20 ×10⁻⁶ cm/s.

On to `CC1CCC2(C(=O)OC3OC(CO)C(O)C(O)C3O)CCC3(C)C(=CCC4C5(C)CCC(O)C(C)(C(=O)O)C5CCC43C)C2C1(C)O` (stereo not shown) [C2, ilexsaponin A1], for which the Papp in data set [2] (setting [3]) was 28.3 ×10⁻⁶ cm/s; in data set [2] (setting [4]), 23.3 ×10⁻⁶ cm/s; in data set [2] (setting [5]), 28.3 ×10⁻⁶ cm/s; in data set [2] (setting [6]), 45 ×10⁻⁶ cm/s; in data set [2] (setting [7]), 46.7 ×10⁻⁶ cm/s; in data set [2] (setting [8]), 43.3 ×10⁻⁶ cm/s. Besides, the Papp in data set [2] (setting [9]) was 36.7 ×10⁻⁶ cm/s; in data set [2] (setting [10]) it was 23.3 ×10⁻⁶ cm/s; in data set [2] (setting [11]), 33.3 ×10⁻⁶ cm/s; in data set [2] (setting [12]), greater than 20 ×10⁻⁶ cm/s.
